Source: patent publication US11673883B2, “Heterocyclic compounds as immunomodulators” (Incyte Corporation, priority 2016, dated 2023)

What follows are molecules tested against PD-1/PD-L1 protein/protein interaction (Homo sapiens (Human), UniProt Q9NZQ7) (assay: PD-1/PD-L1 Homogeneous Time-Resolved Fluorescence (HTRF) Binding Assay). Settings: recombinant human PD-L1 (19-238) His-tag, human PD-1 (25-167) Fc tag; 25° C., PBS pH 7.4.
Procedure: Example A. PD-1/PD-L1 Homogeneous Time-Resolved Fluorescence (HTRF) Binding Assay
The assays were conducted in a standard black 384-well polystyrene plate with a final volume of 20 μL. Inhibitors were first serially diluted in DMSO and then added to the plate wells before the addition of other reaction components. The final concentration of DMSO in the assay was 1%. The assays were carried out at 25° C. in the PBS buffer (pH 7.4) with 0.05% Tween-20 and 0.1% BSA. Recombinant human PD-L1 protein (19-238) with a His-tag at the C-terminus was purchased from AcroBiosystems (PD1-H5229). Recombinant human PD-1 protein (25-167) with Fc tag at the C-terminus was also purchased from AcroBiosystems (PD1-H5257). PD-L1 and PD-1 proteins were diluted in the assay buffer and […] was added to the plate well. Plates were centrifuged and proteins were preincubated with inhibitors for 40 minutes. The incubation was followed by the addition of 10 μL of HTRF detection buffer supplemented with Europium cryptate-labeled anti-human IgG (PerkinElmer-AD0212) specific for Fc and anti-His antibody conjugated to SureLight®-Allophycocyanin (APC, PerkinElmer-AD0059H). After centrifugation, the plate was incubated at 25° C. for 60 min. before reading on a PHERAstar FS plate reader (665 nm/620 nm ratio). Final concentrations in the assay were […], 10 nM PD-L1, 1 nM europium anti-human IgG and 20 nM anti-His-Allophycocyanin. IC50 determination was performed by fitting the curve of percent control activity versus the log of the inhibitor concentration using the GraphPad Prism 5.0 software.

Chain of PD-1/PD-L1 protein/protein interaction (Q9NZQ7 19-238): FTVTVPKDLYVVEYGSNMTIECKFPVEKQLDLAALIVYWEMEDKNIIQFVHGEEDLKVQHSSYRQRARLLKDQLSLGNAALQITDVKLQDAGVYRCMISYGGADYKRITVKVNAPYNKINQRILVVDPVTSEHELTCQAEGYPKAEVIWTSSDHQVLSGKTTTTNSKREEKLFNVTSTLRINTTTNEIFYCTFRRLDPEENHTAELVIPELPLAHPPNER

SMILES	IC50
N#Cc1c(C2=CCCCC2)cccc1N1CCC(N2CCCC2)CC1 [Example 50, 2-cyclohexenyl-6-(4-(pyrrolidin-1-yl)piperidin-1-yl)benzonitrile]	≤ 100 nM
Cc1c(-c2ccccc2)cccc1N1CCC(NCC(=O)N2CCN(C(C)C)CC2)CC1 [Example 27, 1-(4-isopropylpiperazin-1-yl)-2-(1-(2-methylbiphenyl-3-yl)piperidin-4-ylamino)ethanone]	100 to 500 nM
Cc1c(-c2ccccc2)cccc1N1CCC(NC2CCC(CC#N)CC2)CC1 (centres unmarked) [Example 39, 2-(4-(1-(2-methylbiphenyl-3-yl)piperidin-4-ylamino)cyclohexyl) acetonitrile]	≤ 100 nM
N#Cc1c(-c2ccc3c(c2)OCCO3)cccc1N1CCC(N[C@@H]2CCCC[C@H]2CO)CC1 (relative stereo) [Example 12, 2-(2,3-dihydrobenzo[b][1,4]dioxin-6-yl)-6-(4-(trans-2-(hydroxymethyl)cyclohexylamino)piperidin-1-yl)benzonitrile]	≤ 100 nM
Cc1c(-c2ccccc2)cccc1N1CCC(NC2CCC(C#N)CC2)CC1 (single isomer, unassigned) [40 (peak 1), 4-(1-(2-methylbiphenyl-3-yl)piperidin-4-ylamino)cyclohexane-carbonitrile]	≤ 100 nM
Cc1c(-c2ccccc2)cccc1N1CCC(NCC2(CO)CC2)CC1 [Example 26, (1-((1-(2-methylbiphenyl-3-yl)piperidin-4-ylamino)methyl)cyclopropyl)methanol]	≤ 100 nM
N#Cc1c(-c2ccc3c(c2)OCCO3)cccc1N1CCC(N2CCC(CO)C2)CC1 (centres unmarked) [Example 25, 2-(2,3-dihydrobenzo[b][1,4]dioxin-6-yl)-6-(4-(3-(hydroxymethyl)pyrrolidin-1-yl)piperidin-1-yl)benzonitrile]	≤ 100 nM
Cc1c(-c2ccccc2)cccc1N1CCC(NC2CCC(C(=O)O)(c3ccc(Cl)cc3)CC2)CC1 (single isomer, unassigned) [47 (peak 2), 1-(4-chlorophenyl)-4-(1-(2-methylbiphenyl-3-yl)piperidin-4-ylamino)cyclohexane-carboxylic acid]	≤ 100 nM
COc1ccc(C2(CNC3CCN(c4cccc(-c5ccc6c(c5)OCCO6)c4C#N)CC3)CCOCC2)cc1 [Example 11, 2-(2,3-dihydrobenzo[b][1,4]dioxin-6-yl)-6-(4-((4-(4-methoxyphenyl)tetrahydro-2H-pyran-4-yl)methylamino)piperidin-1-yl)benzonitrile]	≤ 100 nM
N#Cc1c(-c2ccc3c(c2)OCCO3)cccc1N1CCC(N[C@H]2C[C@H](CO)C2)CC1 [Example 23, 2-(2,3-dihvdrobenzo[b][1,4]dioxin-6-yl)-6-(4-(trans-3-(hydroxymethyl)cyclobutyl-amino)piperidin-1-yl)benzonitrile]	≤ 100 nM
N#Cc1c(-c2cccc(F)c2)cccc1N1CCC(N2CCCC2)CC1 [Example 49, 3′-fluoro-3-(4-(pyrrolidin-1-yl)piperidin-1-yl)biphenyl-2-carbonitrile]	≤ 100 nM
Cc1c(-c2ccccc2)cccc1N1CCC(N2CCCC2)CC1 [Example 32, 1-(2-methylbiphenyl-3-yl)-4-(pyrrolidin-1-yl)piperidine]	≤ 100 nM
N#Cc1c(-c2ccc3c(c2)OCCO3)cccc1N1CCC(NC2CCCCC2)CC1 [Example 20, 2-(4-(cyclohexylamino)piperidin-1-yl)-6-(2,3-dihydrobenzo[b][1,4]dioxin-6-yl)benzonitrile]	≤ 100 nM
Cc1c(-c2ccccc2)cccc1N1CCC(NC2CCC(C(=O)O)CC2)CC1 (single isomer, unassigned) [41 (peak 1), 4-(1-(2-methylbiphenyl-3-yl)piperidin-4-ylamino)cyclohexane-carboxylic acid]	≤ 100 nM
N#Cc1c(-c2ccc3c(c2)OCCO3)cccc1N1CCC(NC2CCCOC2)CC1 (centres unmarked) [Example 16, 2-(2,3-dihydrobenzo[b][1,4]dioxin-6-yl)-6-(4-(tetrahydro-2H-pyran-3-ylamino)piperidin-1-yl)benzonitrile]	≤ 100 nM
CC[C@H](CO)NC1CCN(c2cccc(-c3ccccc3)c2C)CC1 [Example 35, (R)-2-(1-(2-methylbiphenyl-3-yl)piperidin-4-ylamino)butan-l-ol]	≤ 100 nM
Cc1c(-c2ccccc2)cccc1N1CCC(N[C@H]2C[C@@H](O)C2)CC1 [Example 29, cis-3-(1-(2-methylbiphenyl-3-yl)piperidin-4-ylamino)cyclobutanol]	≤ 100 nM
N#Cc1c(-c2ccc3c(c2)OCCO3)cccc1N1CCC(N2CCC(CCO)C2)CC1 (centres unmarked) [Example 15, 2-(2,3-dihydrobenzo[b][1,4]dioxin-6-yl)-6-(4-(3-(2-hydroxyethyl)pyrrolidin-1-yl)piperidin-1-yl)benzonitrile]	≤ 100 nM
COc1cccc(-c2cccc(N3CCC(N4CCCC4)CC3)c2C#N)c1 [Example 48, 3′-methoxy-3-(4-(pyrrolidin-1-yl)piperidin-1-yl)biphenyl-2-carbonitrile]	100 to 500 nM
CO[C@H]1C[C@H](NC2CCN(c3cccc(-c4ccc5c(c4)OCCO5)c3C#N)CC2)C1 [Example 13, 2-(2,3-dihydrobenzo[b][1,4]dioxin-6-yl)-6-(4-(trans-3-methoxycyclobutylamino)piperidin-1-yl)benzonitrile]	≤ 100 nM
Cn1cc(CCNC2CCN(c3cccc(-c4ccc5c(c4)OCCO5)c3C#N)CC2)cn1 [Example 5, 2-(2,3-dihydrobenzo[b][1,4]dioxin-6-yl)-6-(4-(2-(1-methyl-1H-pyrazol-4-yl)ethylamino)piperidin-1-yl)benzonitrile]	≤ 100 nM
CC(O)C1CCN(C2CCN(c3cccc(-c4ccc5c(c4)OCCO5)c3C#N)CC2)C1 (centres unmarked) [Example 21, 2-(2,3-dihydrobenzo[b][1,4]dioxin-6-yl)-6-(4-(3-(1-hydroxyethyl)pyrrolidin-1-yl)piperidin-1-yl)benzonitrile]	≤ 100 nM
CC(C)(CO)CNC1CCN(c2cccc(-c3ccc4c(c3)OCCO4)c2C#N)CC1 [Example 6, 2-(2,3-dihydrobenzo[b][1,4]dioxin-6-yl)-6-(4-(3-hydroxy-2,2-dimethylpropylamino)piperidin-1-yl)benzonitrile]	≤ 100 nM

Further lines, results first:

IC50	SMILES
≤ 100 nM	CC1(NC2CCN(c3cccc(-c4ccc5c(c4)OCCO5)c3C#N)CC2)CC1 [Example 22, 2-(2,3-dihydrobenzo[b][1,4]dioxin-6-yl)-6-(4-(1-methylcyclopropylamino)piperidin-1-yl)benzonitrile]
100 to 500 nM	N#Cc1c(C2CCCCC2)cccc1N1CCC(N2CCCC2)CC1 [Example 51, 2-cyclohexyl-6-(4-(pyrrolidin-1-yl)piperidin-1-yl)benzonitrile]
≤ 100 nM	Cc1c(-c2ccccc2)cccc1N1CCC(NC2CCOC2)CC1 (racemic) [Example 42, 1-(2-methylbiphenyl-3-yl)-N-(tetrahydrofuran-3-yl)piperidin-4-amine]
≤ 100 nM	Cc1c(-c2ccccc2)cccc1N1CCC(NC2CCC(C(=O)O)(c3ccc(Cl)cc3)CC2)CC1 (single isomer, unassigned) [47 (peak 1), 1-(4-chlorophenyl)-4-(1-(2-methylbiphenyl-3-yl)piperidin-4-ylamino)cyclohexane carboxylic acid]
≤ 100 nM	Cc1c(-c2ccccc2)cccc1N1CCC(N[C@H]2CC[C@@H](O)CC2)CC1 [Example 33, cis-4-(1-(2-methylbiphenyl-3-yl)piperidin-4-ylamino)cyclohexanol]
≤ 100 nM	COCC(C)NC1CCN(c2cccc(-c3ccccc3)c2C)CC1 (racemic) [Example 44, N-(1-methoxypropan-2-yl)-1-(2-methylbiphenyl-3-yl)piperidin-4-amine]
≤ 100 nM	Cc1c(-c2ccccc2)cccc1N1CCC(NC2CC2)CC1 [Example 36, N-cyclopropyl-1-(2-methylbiphenyl-3-yl)piperidin-4-amine]
≤ 100 nM	N#Cc1c(-c2ccc3c(c2)OCCO3)cccc1N1CCC(NC2CCCC2CO)CC1 (stereo not drawn) [Example 17, 2-(2,3-dihydrobenzo[b][1,4]dioxin-6-yl)-6-(4-(cis-2-(hydroxymethyl)cyclopentylamino)piperidin-l-yl)benzonitrile]
≤ 100 nM	N#Cc1c(-c2ccc3c(c2)OCCO3)cccc1N1CCC(NC2CC2)CC1 [Example 2, 2-(4-(cyclopropylamino)piperidin-1-yl)-6-(2,3-dihydrobenzo[b][1,4]dioxin-6-yl)benzonitrile]
≤ 100 nM	Cc1c(-c2ccccc2)cccc1N1CCC(NC2CCc3c(c(C(=O)O)nn3C)C2)CC1 (racemic) [Example 38, 1-methyl-5-(1-(2-methylbiphenyl-3-yl)piperidin-4-ylamino)-4,5,6,7-tetrahydro-1H-indazole-3-carboxylic acid]
≤ 100 nM	N#Cc1c(-c2ccc3c(c2)OCCO3)cccc1N1CCC(NC2CCOCC2)CC1 [Example 7, 2-(2,3-dihydrobenzo[b][1,4]dioxin-6-yl)-6-(4-(tetrahydro-2H-pyran-4-ylamino)piperidin-1-yl)benzonitrile]
≤ 100 nM	Cc1c(-c2ccccc2)cccc1N1CCC(N[C@H]2CCC[C@H]2CO)CC1 (relative stereo) [Example 34, (cis-2-(1-(2-methylbiphenyl-3-yl)piperidin-4-ylamino)cyclopentyl) methanol]
